The experiment concerns the target T1, human CD39 (Homo sapiens, UniProt P49961).
T1 sequence (P49961 1-510): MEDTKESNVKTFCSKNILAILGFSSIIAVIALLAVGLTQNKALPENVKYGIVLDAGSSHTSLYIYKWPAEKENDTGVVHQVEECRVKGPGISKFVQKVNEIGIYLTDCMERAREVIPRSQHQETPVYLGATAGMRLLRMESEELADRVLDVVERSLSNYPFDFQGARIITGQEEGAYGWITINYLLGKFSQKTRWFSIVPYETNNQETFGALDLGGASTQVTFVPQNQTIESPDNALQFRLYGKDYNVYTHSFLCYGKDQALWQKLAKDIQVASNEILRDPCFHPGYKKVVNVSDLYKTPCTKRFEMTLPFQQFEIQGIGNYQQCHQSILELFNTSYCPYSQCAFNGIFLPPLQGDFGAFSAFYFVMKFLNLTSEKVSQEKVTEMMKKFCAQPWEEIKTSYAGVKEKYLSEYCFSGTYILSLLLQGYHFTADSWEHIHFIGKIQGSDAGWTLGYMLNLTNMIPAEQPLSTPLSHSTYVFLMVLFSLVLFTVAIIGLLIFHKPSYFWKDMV
As to the kind of experiment: Fluorescence capillary electrophoresis assay for CD39. Type of experiment: biochemical. Further details: Human umbilical cord membrane preparations (250 ng) natively expressing high amounts of CD39; from tissue; host or cells: human umbilical cord membranes. The settings on record: fluorescent substrate PSB-017621A 0.5 µM; human umbilical cord membrane preparation; n = 3; Cheng-Prusoff; read-out: Ki ± SEM. How it is done: They were minced and homogenized with a polytron in 95 mM NaCl, 0.1 mM phenylmethylsulfonyl fluoride (PMSF), and 45 mM Tris solution, pH 7.6. […] The pellets were resuspended in 5 mM Tris buffer solution, pH 8.0 and 10% glycerol. All purification steps were performed at 4°C. The preparations were kept at −80°C.
For inhibition screening, three independent experiments were performed. […] The reaction buffer contained 10 mM HEPES, 2 mM CaCl2, 1 mM MgCl2, pH 7.4. The samples were incubated at 37°C for 4 min, and the enzymatic reaction was terminated by heating at 90°C for 5 min. The solution was then diluted 1:20 with reaction buffer to perform separation of nucleotides by capillary electrophoresis (CE) followed by laser-induced fluorescence (LIF) detection. […] Three independent experiments were performed, and curves were calculated by GraphPad Prism 8 software (GraphPad software, San Diego, CA, USA).
Analysis was carried out using a P/ACE MDQ capillary electrophoresis system (Beckman Instruments, Fullerton, CA, USA). The separation was performed in a polyacrylamide-coated capillary [30 cm (10 cm effective length) × 50 µm (id), × 360 µm (od)]. Before each run, the capillary was rinsed with the background electrolyte [50 mM phosphate buffer (pH 6.5)] for 1 min at 30 psi. Samples were electrokinetically injected by applying a voltage of -6 kV for 30 s at the capillary outlet, and the fluorescent nucleotide derivatives were separated by voltage application of -15 kV. […] Data collection and peak area analysis were performed by the P/ACE MDQ software 32 KARAT obtained from Beckman Coulter (Fullerton, CA, USA).

The term Ki denotes a dissociation constant, usually derived from enzyme kinetics or from competition with a known ligand. Consider `CCCCNc1nc2c(NC)ncnc2n1[C@@H]1O[C@H](COP(=O)(O)OP(=O)(O)C(Br)(Br)P(=O)(O)O)[C@@H](O)[C@H]1O` [Compound 33, (Dibromo((((((2R,3S,4R,5R)-5-(8-(butylamino)-6-(methylamino)-9H-purin-9-yl)-3,4-dihydroxy-tetrahydrofuran-2-yl)methoxy)(hydroxy)phosphoryl)oxy)-(hydroxy)phosphoryl)methyl)-phosphonic Acid], for which the Ki was found to be 1510 ± 400 nM.

Source of the values: PMC7508162 (Frontiers in Pharmacology, 2020).
